Data as given in patent publication US9040712B2, “Thiadiazole analogs thereof and methods for treating SMN-deficiency-related-conditions” (NOVARTIS AG, priority 2013, dated 2015).
Counter-ions that a name gives are not always drawn.

system: SMN protein; assay: cellular SMN ELISA (SMN protein elevation); format: cell-based; settings: myoblast cell line derived from SMNdelta7 mouse model; 24 hours compound treatment; concentration range 100 pM-10 uM
Procedure: A cellular SMN ELISA was used to measure the effects of low molecular weight compounds on SMN protein elevation. Cells from a myoblast cell line derived from the SMNdelta7 mouse model (kind gift from Steve Burden, NYU) were seeded into a 384-well plate at a density of 3000 cells/well and treated with compounds for 24 hours. ELISA capture plates were prepared by coating 384-well plates (Immulon 4HBX) with 0.5 ug/mL of anti-SMN mAb (BD Science, Catalog number 610647) at 4° C. overnight. The plates were washed 5 times with 110 uL of PBS-Tween (0.05% Tween-20, PBST), blocked with 100 uL of 1% BSA in PBST for 2 hours and washed (5 times) with 100 uL of PBST. After 24 hours of compound treatment cells were lysed in a modified RIPA-buffer, on ice for 1 hour. 20 uL of lysate and 20 uL of 1% BSA were then added to the ELISA capture plates and incubated at 4° C. overnight. Plates were washed (5 times) with PBST and then incubated with 1:100 dilution of primary rabbit anti-SMN polyclonal antibody (Santa cruz, Catalog number SC-15320) at room temperature for 1 hour and subsequently washed (5 times) with 110 uL of PBST. This was followed by addition of 1:100 Goat anti-Rabbit IgG-HRP linked (Cell Signaling, Catalog number 7074) secondary antibody for 1 hour. Plates were then washed with PBST and incubated with 40 uL TMB substrate (Cell Signaling, Catalog number 7004L) at room temperature for 1-10 minutes with shaking. The reaction was stopped by addition of 40 uL of stop solution (Cell signaling, Catalog number 7002L) and absorption was measured at 450 nm. Data was reported as fold activation over DMSO control and EC50. ELISA assay condition: compound concentration range 100 pM-10 uM.

Question: What does the source list for `Fc1cc(-c2nnc(N3C[C@H]4CNC[C@H]4C3)s2)c(F)cc1-c1cn[nH]c1` [Example 53, 2-(2,5-difluoro-4-(1H-pyrazol-4-yl)phenyl)-5-((3aR,6aS)-hexahydropyrrolo[3,4-c]pyrrol-2(1H)-yl)-1,3,4-thiadiazole]?
Answer: EC50: 70 nM; SMN Activity Fold (fold activation over DMSO control): 2.56 fold

Question: How did the EC50 turn out when `COc1cc(C#N)ccc1-c1nnc(N(C)C2CC(C)(C)NC(C)(C)C2)s1` [Example 33, 3-methoxy-4-(5-(methyl(2,2,6,6-tetramethyl-piperidin-4-yl)amino)-1,3,4-thiadiazol-2-yl) benzonitrile] was run?
Answer: 1040 nM

Question: What about the “SMN Activity Fold (fold activation over DMSO control)” value (from here on “SMN Activity Fold”) of the same molecule?
Answer: 2.16 fold

Question: Which results are given for `CN1C[C@@H]2CN(c3nnc(-c4ccc(-c5cnn(C)c5)cc4Cl)s3)C[C@@H]2C1` [Example 79, 2-(2-chloro-4-(1-methyl-1H-pyrazol-4-yl)phenyl)-5-((3aR,6aS)-5-methylhexahydropyrrolo[3,4-c]pyrrol-2(1H)-yl)-1,3,4-thiadiazole]?
Answer: EC50: 150 nM; SMN Activity Fold (fold activation over DMSO control): 2.76 fold

Question: `CN(c1nnc(-c2c(O)c3ccccc3n(C)c2=O)s1)C1CC(C)(C)NC(C)(C)C1` [Example 102, 4-hydroxy-1-methyl-3-(5-(methyl(2,2,6,6-tetramethylpiperidin-4-yl)amino)-1,3,4-thiadiazol-2-yl)quinolin-2(1H)-one] was tested. Which EC50 did it give?
Answer: 24 nM

Question: And the “SMN Activity Fold” value?
Answer: 2.71 fold

Question: Which EC50 does the source give for `Clc1cc(-c2cn[nH]c2)ccc1-c1nnc(N2CCC3(CCCNC3)C2)s1` (stereo not drawn) [Example 106, 2-(2-chloro-4-(1H-pyrazol-4-yl)phenyl)-5-(2,7-diazaspiro[4.5]decan-2-yl)-1,3,4-thiadiazole•Hydrochloride Salt] here?
Answer: 1660 nM

Question: And the “SMN Activity Fold” value?
Answer: 2.50 fold

Question: For `CN(c1nnc(-c2sc3ccccc3c2Cl)s1)C1CC(C)(C)NC(C)(C)C1` [Example 109, 5-(3-chlorobenzo[b]thiophen-2-yl)-N-methyl-N-(2,2,6,6-tetramethylpiperidin-4-yl)-1,3,4-thiadiazol-2-amine], which EC50 is on record?
Answer: 534 nM

Question: What about the “SMN Activity Fold” value of the same molecule?
Answer: 2.75 fold

Question: For `CN(c1nnc(-c2ccc3cc(O)ccc3c2)s1)C1CC(C)(C)NC(C)(C)C1` [Example 2, 6-(5-(Methyl(2,2,6,6-tetramethylpiperidin-4-yl)amino)-1,3,4-thiadiazol-2-yl)naphthalen-2-ol], which EC50 is on record?
Answer: 436 nM

Question: What about the “SMN Activity Fold” value of the same molecule?
Answer: 2.66 fold

Question: Which EC50 does the source give for `COc1cc(-c2ncc(C)o2)cc(O)c1-c1nnc(N(C)C2CC(C)(C)NC(C)(C)C2)s1` [Example 28, 3-Methoxy-2-(5-(methyl(2,2,6,6-tetramethylpiperidin-4-yl)amino)-1,3,4-thiadiazol-2-yl)-5-(5-methyloxazol-2-yl)phenol] here?
Answer: 20 nM

Question: What about the “SMN Activity Fold” value of the same molecule?
Answer: 2.70 fold

Question: With `CN(c1nnc(-c2ccc(-c3ccn(C)c(=O)c3)cc2OC(F)(F)F)s1)C1CC(C)(C)NC(C)(C)C1` [Example 12, 1-Methyl-4-(4-(5-(methyl(2,2,6,6-tetramethyl-piperidin-4-yl)amino)-1,3,4-thiadiazol-2-yl)-3-(trifluoromethoxy)phenyl)pyridin-2(1H)-one] as the molecule, how does the EC50 read?
Answer: 895 nM

Question: What about the “SMN Activity Fold” value of the same molecule?
Answer: 2.20 fold

Question: What does the source list for `CN(c1nnc(-c2c(O)cc(-c3cn[nH]c3)cc2F)s1)C1CC(C)(C)NC(C)(C)C1` [Example 90, 3-fluoro-2-(5-(methyl(2,2,6,6-tetramethylpiperidin-4-yl)amino)-1,3,4-thiadiazol-2-yl)-5-(1H-pyrazol-4-yl)phenol]?
Answer: EC50: 6 nM; SMN Activity Fold (fold activation over DMSO control): 2.57 fold

Question: For `Cn1cc(-c2ccc(-c3nnc(NC4CC(C)(C)NC(C)(C)C4)s3)c(Cl)c2)cn1` [Example 27, 5-(2-chloro-4-(1-methyl-1H-pyrazol-4-yl)phenyl)-N-(2,2,6,6-tetramethylpiperidin-4-yl)-1,3,4-thiadiazol-2-amine], which EC50 is on record?
Answer: 193 nM

Question: What about the “SMN Activity Fold” value of the same molecule?
Answer: 2.48 fold

Question: With `CN(c1nnc(-c2c(F)cc(-c3cn[nH]c3)cc2F)s1)C1CC(C)(C)NC(C)(C)C1` [Example 52, 5-(2,6-difluoro-4-(1H-pyrazol-4-yl)phenyl)-N-methyl-N-(2,2,6,6-tetramethylpiperidin-4-yl)-1,3,4-thiadiazol-2-amine] as the molecule, how does the EC50 read?
Answer: 61 nM

Question: What about the “SMN Activity Fold” value of the same molecule?
Answer: 3.30 fold

Question: How did the EC50 turn out when `CN(c1nnc(-c2cc3cccnc3cc2O)s1)C1CC(C)(C)NC(C)(C)C1` [Example 32, 6-(5-(Methyl(2,2,6,6-tetramethylpiperidin-4-yl)amino)-1,3,4-thiadiazol-2-yl)quinolin-7-ol] was run?
Answer: 256 nM

Question: And the “SMN Activity Fold” value?
Answer: 2.48 fold

Question: What does the source list for `COc1cc(-c2cccnc2)ccc1-c1nnc(N(C)C2CC(C)(C)NC(C)(C)C2)s1` [Example 75, 5-(2-methoxy-4-(pyridin-3-yl)phenyl)-N-methyl-N-(2,2,6,6-tetramethylpiperidin-4-yl)-1,3,4-thiadiazol-2-amine]?
Answer: EC50: 235 nM; SMN Activity Fold (fold activation over DMSO control): 2.44 fold

Question: How did the EC50 turn out when `COc1cc(-c2cnn(C)c2)ccc1-c1nnc(N2CC3(CCCNC3)C2)s1` [Example 85, 2-(2-methoxy-4-(1-methyl-1H-pyrazol-4-yl)phenyl)-5-(2,6-diazaspiro[3.5]nonan-2-yl)-1,3,4-thiadiazole] was run?
Answer: 282 nM

Question: And the “SMN Activity Fold” value?
Answer: 2.22 fold

Question: `CN(c1nnc(-c2cc(F)c(-c3cn[nH]c3)cc2Cl)s1)C1CC(C)(C)NC(C)(C)C1` [Example 54, 5-(2-chloro-5-fluoro-4-(1H-pyrazol-4-yl)phenyl)-N-methyl-N-(2,2,6,6-tetramethylpiperidin-4-yl)-1,3,4-thiadiazol-2-amine] was tested. Which EC50 did it give?
Answer: 47 nM

Question: What about the “SMN Activity Fold” value of the same molecule?
Answer: 3.16 fold

Question: What does the source list for `CN(c1nnc(-c2cc(F)c(-c3cn[nH]c3)cc2F)s1)C1CC(C)(C)NC(C)(C)C1` [Example 50, 5-(2,5-difluoro-4-(1H-pyrazol-4-yl)phenyl)-N-methyl-N-(2,2,6,6-tetramethylpiperidin-4-yl)-1,3,4-thiadiazol-2-amine]?
Answer: EC50: 20 nM; SMN Activity Fold (fold activation over DMSO control): 3.07 fold

Question: `CN(c1nnc(-c2c(O)cc(-c3cn[nH]c3)c(F)c2F)s1)C1CC(C)(C)NC(C)(C)C1` [Example 91, 3,4-difluoro-2-(5-(methyl(2,2,6,6-tetramethylpiperidin-4-yl)amino)-1,3,4-thiadiazol-2-yl)-5-(1H-pyrazol-4-yl)phenol] was tested. Which “SMN Activity Fold” value did it give?
Answer: 2.67 fold

Question: What does the source list for `CN(c1nnc(-c2cc(-n3cccn3)ccc2O)s1)C1CC(C)(C)NC(C)(C)C1` [Example 24, 2-(5-(Methyl(2,2,6,6-tetramethylpiperidin-4-yl)amino)-1,3,4-thiadiazol-2-yl)-4-(1H-pyrazol-1-yl)phenol]?
Answer: EC50: 987 nM; SMN Activity Fold (fold activation over DMSO control): 2.28 fold

Question: With `CN(c1nnc(-c2ccc(-c3cnn(C)c3)cc2Cl)s1)C1CC(C)(C)NC(C)(C)C1` [Example 25, 5-(2-Chloro-4-(1-methyl-1H-pyrazol-4-yl)phenyl)-N-methyl-N-(2,2,6,6-tetramethylpiperidin-4-yl)-1,3,4-thiadiazol-2-amine] as the molecule, how does the EC50 read?
Answer: 132 nM

Question: What about the “SMN Activity Fold” value of the same molecule?
Answer: 2.49 fold

Question: How did the EC50 turn out when `CN(c1nnc(-c2cc3ccccc3cc2O)s1)C1CC(C)(C)NC(C)(C)C1` [Example 22, 3-(5-(Methyl(2,2,6,6-tetramethylpiperidin-4-yl)amino)-1,3,4-thiadiazol-2-yl)naphthalen-2-ol.HBr] was run?
Answer: 253 nM

Question: What about the “SMN Activity Fold” value of the same molecule?
Answer: 2.70 fold

Question: With `Cc1nc(C)c(-c2cc(F)c(-c3nnc(N(C)C4CC(C)(C)NC(C)(C)C4)s3)cc2F)s1` [Example 58, 5-(4-(2,4-dimethylthiazol-5-yl)-2,5-difluorophenyl)-N-methyl-N-(2,2,6,6-tetramethylpiperidin-4-yl)-1,3,4-thiadiazol-2-amine] as the molecule, how does the EC50 read?
Answer: 386 nM

Question: What about the “SMN Activity Fold” value of the same molecule?
Answer: 2.41 fold

Question: For `OC[C@H]1CN(c2nnc(-c3ccc(-c4cn[nH]c4)cc3Cl)s2)CCN1` [Example 107, (R)-(4-(5-(2-chloro-4-(1H-pyrazol-4-yl)phenyl)-1,3,4-thiadiazol-2-yl)piperazin-2-yl)methanol•Hydrochloride Salt], which EC50 is on record?
Answer: 4540 nM

Question: What about the “SMN Activity Fold” value of the same molecule?
Answer: 2.06 fold

Question: Which results are given for `CN(C)CC1CN(c2nnc(-c3ccc(-c4cn[nH]c4)cc3Cl)s2)CCO1` (stereo not drawn) [Example 82, 1-(4-(5-(2-chloro-4-(1H-pyrazol-4-yl)phenyl)-1,3,4-thiadiazol-2-yl)morpholin-2-yl)-N,N-dimethylmethanamine]?
Answer: EC50: 994 nM; SMN Activity Fold (fold activation over DMSO control): 2.50 fold

Question: What does the source list for `CN(c1nnc(-c2ccc(-n3ccnc3)cc2F)s1)C1CC(C)(C)NC(C)(C)C1` [Example 72, 5-(2-fluoro-4-(1H-imidazol-1-yl)phenyl)-N-methyl-N-(2,2,6,6-tetramethylpiperidin-4-yl)-1,3,4-thiadiazol-2-amine]?
Answer: EC50: 91 nM; SMN Activity Fold (fold activation over DMSO control): 2.50 fold

Question: For `CN(c1nnc(-c2ccc(-n3ccc(N)n3)cc2Cl)s1)C1CC(C)(C)NC(C)(C)C1` [Example 69, 5-(4-(3-amino-1H-pyrazol-1-yl)-2-chlorophenyl)-N-methyl-N-(2,2,6,6-tetramethylpiperidin-4-yl)-1,3,4-thiadiazol-2-amine], which EC50 is on record?
Answer: 171 nM

Question: And the “SMN Activity Fold” value?
Answer: 2.44 fold
